One test deals with L-phenylserine aldolase.
Experiment: not given
The test is classed as biochemical, Pseudomonas putida biovar A24-1 strain. The following applies: compound as substrate; activity to DL-threo-phenyl serine taken as 100%. The protocol:
E. coli JM109 strain was transformed with the plasmid pKK-PSA1 obtained in Example 4. The resulting transformant was inoculated to liquid LB medium (Bacto-tryptone 10 g/l, Bacto-yeast extract 5 g/l, sodium chloride 10 g/l; pH 7.2) containing ampicillin (50 mg/l), and cultured at 30° C. overnight. Then, an aliquot of the culture was inoculated to 2×YT medium (Bacto-tryptone 20 g/l, Bacto-yeast extract 10 g/l, sodium chloride 10 g/l; pH 7.2) containing ampicillin (50 mg/l). The bacterial cells were cultured at 30° C., and then the induction was achieved by treating the cells with 0.1 mM IPTG for 4 hours. The bacterial cells were harvested by centrifugation. The cells were suspended in 100 mM TES-NaOH buffer (pH 7.2) containing 0.02% 2-mercaptoethanol, 2 mM EDTA, and 20 μM pyridoxal-5′-phosphate. The cell suspension was sonicated in a closed sonicator UCD-200™ (Cosmo Bio) for 3 minutes to lyse the bacterial cells. The bacterial cell lysate was centrifuged and the resulting supernatant was used as cell-free extract. The activity of L-phenylserine aldolase was assayed using the cell-free extract. The specific activity was confirmed to be 20.0 U/mg.
When the activity to DL-threo-phenyl serine was taken as 100%, the relative activity was estimated to be 31.3%.
For `N[C@@H](C(=O)O)[C@H](O)C1CCCCC1` (racemic), the Relative activity was determined as 31.3%.

The same test, now with this note: compound as substrate; cell-free extract of Example 5.
As for `N[C@@H](C(=O)O)[C@H](O)C1CCCCC1` (racemic), the “enzymatic activity to the substrate” value was 6.26 U/mg.

A further test has as its system L-phenylserine aldolase. Kind of test: Effect of cations on the activity of L-phenylserine aldolase.
Details: not given
The test is classed as biochemical, Pseudomonas putida biovar A24-1 strain.
In turn, `O=S(=O)([O-])[O-].[Cu+2]` [Copper sulfate] returned a Relative activity of 89%.

The compound `O=S(=O)([O-])[O-].[Fe+2]` [Ferric (II) sulfate] came in with a Relative activity of 91%.

Turning to `[Cl-].[Cl-].[Mg+2]` [Magnesium chloride], the Relative activity worked out at 98%.

Still in this test, the particulars now being: compound 0.1 mM, preincubated with enzyme at 30° C. for 10 minutes; […].
With `[Cl][Co][Cl]` [Cobalt chloride], the Relative activity came out at 98%.

On to `[Cl-].[Cl-].[Zn+2]` [Zinc chloride], for which the Relative activity is on record as 92%.

Still in this test, the particulars now being: compound 0.1 mM, preincubated with enzyme at 30° C. for 10 minutes; activity in the absence of cation taken as 100.
Take `[Ba+2].[Cl-].[Cl-]` [Barium chloride]: the Relative activity was 90%.

For Manganese chloride, the Relative activity turned out to be 92%.

The same test, now with this note: compound 50 mM, preincubated with enzyme at 30° C. for 10 minutes; […].
As to `Cl.N` [Ammonium chloride], the Relative activity was found to be 92%.

In turn, `[Cl-].[K+]` [Potassium chloride] had a Relative activity of 94%.

Compound `[Cl-].[Na+]` [Sodium chloride] gave a Relative activity of 88%.

The same test, now with this note: monovalent or divalent cations.
For `N` [ammonium ion], the “activation of the enzyme by cation (in words)” value (“activation of the enzyme” for short) is “not activated”.

As to `[Mn+2]` [manganese ion], the “activation of the enzyme” value is reported as “not activated”.

As for `[K+]` [potassium ion], the “activation of the enzyme” value is “not activated”.

A further test deals with L-phenylserine aldolase. Kind of test: Substrate specificity of purified L-phenylserine aldolase under the standard assay conditions. As to conditions: compound as substrate.
For `C[C@H](O)[C@H](N)C(=O)O` [L-allo-threonine], the “enzymatic activity to the compound (in words)” value (shortened to “enzymatic activity … (in words)”) is listed as “low enzymatic activity”.

For `N[C@@H](CO)C(=O)O` [L-serine], the “enzymatic activity … (in words)” value is recorded as “almost no activity”.

As to `C[C@@H](O)[C@H](N)C(=O)O` [L-threonine], the “enzymatic activity … (in words)” value was “low enzymatic activity”.

The test is the same for the next values; noted with them: compound as substrate; […].
`N[C@@H](C(=O)O)[C@H](O)c1ccccc1` [D-erythro-phenyl serine]: the “activity to the compound” value was “undetectable”.

`N[C@@H](C(=O)O)[C@@H](O)c1ccccc1` [D-threo-phenyl serine]: the “activity to the compound” value is on record as “undetectable”.

The same test, now with this note: compound as substrate; activity to DL-threo-β-phenyl serine taken as 100; purified enzyme, standard assay conditions.
Consider `N[C@@H](C(=O)O)[C@H](O)c1ccccc1` (racemic) [DL-erythro-β-phenyl serine], for which the Relative activity is on record as 130.

With `N[C@@H](C(=O)O)[C@@H](O)c1ccccc1` (racemic) [DL-threo-β-phenyl serine], the Relative activity is on record as 100.

`CCC(O)C(N)C(=O)O` (racemic) [DL-β-hydroxynorvaline]: the Relative activity was determined as 0.

The compound `NCC(O)c1ccccc1` (racemic) [DL-β-hydroxyphenylethylamine] registered a Relative activity of 0.

The compound `C[C@@H](O)[C@@H](N)C(=O)O` [D-allo-threonine] displayed a Relative activity of 0.

For `N[C@H](CO)C(=O)O` [D-serine], the Relative activity came out at 0.

On to `C[C@H](O)[C@@H](N)C(=O)O` [D-threonine], for which the Relative activity is given as 0.

`C[C@H](O)[C@H](N)C(=O)O` [L-allo-threonine]: the Relative activity came to 8.

`O=C(O)[C@@H](O)Cc1ccccc1` [L-phenyllactic acid] displayed a Relative activity of 0.

As for `N[C@@H](CO)C(=O)O` [L-serine], the Relative activity is recorded as 0.

Turning to `C[C@@H](O)[C@H](N)C(=O)O` [L-threonine], the Relative activity worked out at 2.1.

DL-β-thienyl serine registered a Relative activity of 170.

(Values after patent publication US20060009524A1, “Methods for producing D-beta-hydroxyamino acids” (priority 2004, published 2006).)
